As to `c1nc(N2CCCCCCC2)c2cc[nH]c2n1` [Example 17, 4-Azocan-1-yl-7H-pyrrolo[2,3-d]pyrimidine], the melting point (usually the temperature of the solid-liquid transition) lay in the range of 225 to 226 °C.
The same measure for `CCCC1CCCCN1c1ncnc2[nH]ccc12` (stereo not drawn) [Example 24, 4-(2-Propyl-piperidin-1-yl)-7H-pyrrolo[2,3-d]pyrimidine]: 106 to 107 °C; for `c1nc(N2CCCCCC2)c2cc[nH]c2n1` [Example 27, 4-Azepan-1-yl-7H-pyrrolo[2,3-d]pyrimidine]: 210 °C.
Then `Clc1c[nH]c2ncnc(N3CCCC4CCCCC43)c12` (stereo not drawn) [Example 39, 1-(5-Chloro-7H-pyrrolo[2,3-d]pyrimidin-4-yl)-decahydro-quinoline], with 190 to 192 °C; and `Cc1cc2c(N(C)C3CCCCC3)ncnc2[nH]1` [Example 59, Cyclohexyl-methyl-(6-methyl-7H-pyrrolo[2,3-d]pyrimidin-4-yl)-amine], with 221 °C (dec.); and `Clc1c[nH]c2ncnc(N3CCCCC3)c12` [Example 61, 5-Chloro-4-piperidin-1-yl-7H-pyrrolo[2,3-d]pyrimidine], with 170 to 172 °C.
The same measure for `Clc1c[nH]c2ncnc(N3CCC4CCCCC43)c12` (stereo not drawn) [Example 62, 5-Chloro-4-(octahydro-indol-1-yl)-7H-pyrrolo[2,3-d]pyrimidine]: 193 °C; for `N#Cc1c[nH]c2ncnc(N3CCCCC3)c12` [Example 78, 4-Piperidin-1-yl-7H-pyrrolo[2,3-d]pyrimidine-5-carbonitrile]: 209 to 211 °C.
`C#Cc1c[nH]c2ncnc(N3CCCCC3)c12` [Example 79, 5-Ethynyl-4-piperidin-1-yl-7H-pyrrolo[2,3-d]pyrimidine] displayed a melting point of 179 to 181 °C.

The record behind these values is US7569569B2, “Pyrrolo[2,3-d]pyrimidine compounds” (Pfizer Inc., priority 1998, dated 2009).
